These results are taken from US4012382A, “α-Amino and α-formyl-α-(p-acyloxyphenyl)acetamidocephalosporanic acid derivatives” (priority 1974, dated 1977).

For data set [1], the system named is K. pneumoniae A9977. The data set can be described thus: MIC, 2-fold broth dilution, K. pneumoniae A9977. The class given is cell-based. The settings on record: Klebsiella pneumoniae, Nutrient Broth, 10-4. The procedure: (§1) Minimal inhibitory concentrations were determined by the 2-fold broth dilution method utilizing equimolar concentrations of each compound.
In general terms: Dilution methods test growth across graded concentrations, often in twofold steps.

The test system of data set [2] is Ent. cloacae A9659. The data set can be described thus: MIC, 2-fold broth dilution, Ent. cloacae A9659. The settings on record: Enterobacter cloacae, Nutrient Broth, 10-4. It counts as cell-based. The procedure:
as §1

The test system of data set [3] is S. aureus Smith A9537. The data set can be described thus: MIC, 2-fold broth dilution, S. aureus Smith A9537. It counts as cell-based. The settings on record: Staphylococcus aureus, SMITHA9537, Nutrient Broth, 10-4. The procedure:
as §1

The test system of data set [4] is S. aureus BX1633 A9606. The data set can be described thus: MIC, 2-fold broth dilution, S. aureus BX1633 A9606. It counts as cell-based. The settings on record: Staphylococcus aureus, BX1633A9606, Nutrient Broth. The procedure: as §1
Data set [5] has as its system Pr. mirabilis A9900. The data set can be described thus: MIC, 2-fold broth dilution, Pr. mirabilis A9900. The class given is cell-based. The settings on record: Proteus mirabilis, Nutrient Broth, 10-4. The procedure: as §1
Data set [6] concerns Ent. cloacae A9656. The data set can be described thus: MIC, 2-fold broth dilution, Ent. cloacae A9656. The class given is cell-based. The settings on record: Enterobacter cloacae, Nutrient Broth, 10-4. The procedure: as §1
The test system of data set [7] is Ps. aeruginosa A9843A. The data set can be described thus: MIC, 2-fold broth dilution, Ps. aeruginosa A9843A. The class given is cell-based. The note with it: Pseudomonas aeruginosa. The procedure:
as §1

In data set [8] the test system is S. aureus Meth-Res A15097. The data set can be described thus: MIC, 2-fold broth dilution, S. aureus Meth-Res A15097. The class given is cell-based. The settings on record: Staphylococcus aureus; Nutrient Broth; 10-3. As to the method: as §1
Data set [9] deals with Ent. cloacae A9657. The data set can be described thus: MIC, 2-fold broth dilution, Ent. cloacae A9657. The class given is cell-based. The settings on record: Enterobacter cloacae, Nutrient Broth, 10-4. As to the method: as §1
The test system of data set [10] is D. pneumoniae A9585. The data set can be described thus: MIC, 2-fold broth dilution, D. pneumoniae A9585. The class given is cell-based. The settings on record: Streptococcus pneumoniae, 10-3 dilution of overnite broth culture, 45% AAB + 5% serum + 50% NB. The procedure: (§2) *45% AAB + 5% serum + 50% NB
(§3) **Dilution of overnite broth culture
as §1

Data set [11] relates to Sal. enteritidis A9531. The data set can be described thus: MIC, 2-fold broth dilution, Sal. enteritidis A9531. It counts as cell-based. The note with it: Salmonella enterica, Nutrient Broth, 10-4. The procedure:
as §1

Data set [12] relates to E. coli Juhl A15119. The data set can be described thus: MIC, 2-fold broth dilution, E. coli Juhl A15119. The note with it: Escherichia coli, JUHLA15119; Nutrient Broth; 10-4. The class given is cell-based. As to the method: as §1
Data set [13] relates to E. coli A9675. The data set can be described thus: MIC, 2-fold broth dilution, E. coli A9675. The class given is cell-based. The note with it: Escherichia coli, Nutrient Broth, 10-4. As to the method:
as §1

For data set [14], the system named is K. pneumoniae A15130. The data set can be described thus: MIC, 2-fold broth dilution, K. pneumoniae A15130. The class given is cell-based. The settings on record: Klebsiella pneumoniae, Nutrient Broth, 10-4. The procedure: as §1
Data set [15] deals with Ser. marcescens A20019. The data set can be described thus: MIC, 2-fold broth dilution, Ser. marcescens A20019. The class given is cell-based. The note with it: Serratia marcescens, Nutrient Broth, 10-4. The procedure:
as §1

The test system of data set [16] is Str. pyogenes A9604. The data set can be described thus: MIC, 2-fold broth dilution, Str. pyogenes A9604. It counts as cell-based. The settings on record: Streptococcus pyogenes, 10-3 dilution of overnite broth culture, 45% AAB + 5% serum + 50% NB. The procedure: as §2, §3, §1
The subject of data set [17] is Pr. morganii A15153. The data set can be described thus: MIC, 2-fold broth dilution, Pr. morganii A15153. The note with it: Morganella morganii, Nutrient Broth, 10-4. It counts as cell-based. The procedure: as §1
Data set [18] is described as follows: Hydrolysis in human serum (bioautographed paper chromatography). It counts as in vitro ADME. As to the method: (§4) Solutions of 0.5 mg./ml. of 7-D-(-)α-amino-α-p(-acetoxyphenylacetamido)desacetoxycephalosporanic acid (p-acetoxycephalexin) in normal saline and in human serum were prepared. Standard solutions of 0.5 mg./ml. of 7-D-(-)α-amino-α-p(-hydroxyphenylacetamido)desacetoxycephalosporanic acid (p-hydroxycephalexin) were also prepared in both normal saline and human serum.
(§5) All the above solutions were incubated at 37° C. with shaking and sampled for chromatography at time intervals of 0, 2, 4, 8 and 24 hours. The solutions, approximately 5 microliters per strip, were spotted on Whatman No. 1 half-inch strips which were dried and developed in a solvent system containing 80 parts butylacetate; 15 parts n-butanol; 40 parts acetic acid; and 24 parts water. The strips were then bioautographed on plates seeded with bacillus subtilis at a pH of 6.0.

Data set [19] in a line: Stability in normal saline (bioautographed paper chromatography). It counts as physicochemical. The settings on record: 0.5 mg./ml. in normal saline, 37° C., sampled 0-24 hours. As to the method:
as §4, §5

SMILES strings stand for the structures. Values after ≈ are worked out from the molar mass of the structure shown.

On to `N[C@@H](C(=O)N[C@@H]1C(=O)N2C(C(=O)O)=C(CSc3c[nH]nn3)CS[C@H]12)c1ccc(O)cc1` [Bl-S640, reference compound], for which the MIC (in general, the lowest concentration that inhibits growth of the organism) in data set [1] came out at 0.5 µg/mL (≈ 1.08 µM); in data set [2], 32 µg/mL (≈ 69.2 µM); in data set [3] it was 0.3 µg/mL (≈ 0.649 µM); in data set [3] (+ 50% serum), 1 µg/mL; in data set [4] (10-2), 1 µg/mL (≈ 2.16 µM); in [4] (10-3), 0.6 µg/mL (≈ 1.3 µM). Further, the MIC was 0.5 µg/mL (≈ 1.08 µM) in data set [5]; 125 µg/mL (≈ 270 µM) in data set [6]; 125 µg/mL (≈ 270 µM) in data set [7]; 4 µg/mL (≈ 8.65 µM) in data set [8]; 0.5 µg/mL (≈ 1.08 µM) in [9]; 0.04 µg/mL in [10]. Further, the MIC in data set [11] turned out to be 0.6 µg/mL (≈ 1.3 µM); in data set [12] it was 0.5 µg/mL (≈ 1.08 µM); in [13] it was 4 µg/mL (≈ 8.65 µM); in data set [14], 1 µg/mL (≈ 2.16 µM); in data set [15], 125 µg/mL (≈ 270 µM); in data set [16], 0.04 µg/mL. For the same compound, the MIC in [17] came out at 63 µg/mL (≈ 136 µM).
On to `CC(=O)Oc1ccc([C@@H](N)C(=O)N[C@@H]2C(=O)N3C(C(=O)O)=C(CSc4c[nH]nn4)CS[C@H]23)cc1` [RN 1396], for which the MIC was found to be 1 µg/mL (≈ 1.98 µM) in [1]; 32 µg/mL (≈ 63.4 µM) in [2]; 0.16 µg/mL (≈ 0.317 µM) in data set [3]; 1 µg/mL in data set [3] (+ 50% serum); 4 µg/mL (≈ 7.93 µM) in [4] (10-2); 0.6 µg/mL (≈ 1.19 µM) in data set [4] (10-3). Besides, the MIC turned out to be 0.5 µg/mL (≈ 0.991 µM) in data set [5]; 125 µg/mL (≈ 248 µM) in [6]; 125 µg/mL (≈ 248 µM) in [7]; 8 µg/mL (≈ 15.9 µM) in data set [8]; 1 µg/mL (≈ 1.98 µM) in data set [9]; 0.04 µg/mL in data set [10]. Further, the MIC was determined as 0.3 µg/mL (≈ 0.595 µM) in [11]; 2 µg/mL (≈ 3.96 µM) in [12]; 8 µg/mL (≈ 15.9 µM) in [13]; 2 µg/mL (≈ 3.96 µM) in data set [14]; 125 µg/mL (≈ 248 µM) in data set [15]; 0.04 µg/mL in data set [16]. Also, the MIC in data set [17] was found to be 63 µg/mL (≈ 125 µM).
Turning to `CC1=C(C(=O)O)N2C(=O)[C@@H](NC(=O)[C@H](N)c3ccc(O)cc3)[C@H]2SC1` [BL-S 578-4, 7-D-(-)α-amino-α-(p-hydroxyphenylacetamido)desacetoxycephalosporanic acid, reference compound], the minimum inhibitory concentration (MIC) was 16 µg/mL (≈ 44 µM) in data set [1]; greater than 125 µg/mL in [2]; 1.3 µg/mL (≈ 3.58 µM) in data set [3]; 1.3 µg/mL in data set [3] (+ 50% serum); 2 µg/mL (≈ 5.5 µM) in data set [4] (10-2); 2 µg/mL (≈ 5.5 µM) in data set [4] (10-3). Further, the MIC in [5] was 8 µg/mL (≈ 22 µM); in [6], greater than 125 µg/mL; in data set [7], greater than 125 µg/mL; in data set [8], 16 µg/mL (≈ 44 µM); in [9], 16 µg/mL (≈ 44 µM); in data set [10] it was 0.6 µg/mL. In addition, the MIC in [11] was 8 µg/mL (≈ 22 µM); in data set [12] it was 16 µg/mL (≈ 44 µM); in data set [13] it was 32 µg/mL (≈ 88.1 µM); in data set [14] it was 32 µg/mL (≈ 88.1 µM); in data set [15], greater than 125 µg/mL; in [16] it was 0.08 µg/mL. For the same compound, the MIC in data set [17] is greater than 125 µg/mL.
As for `CC(=O)Oc1ccc([C@@H](N)C(=O)N[C@@H]2C(=O)N3C(C(=O)O)=C(C)CS[C@H]23)cc1` [RN 1394, 7-D(-)2-amino-2-(4-acetoxyphenylacetamido)desacetoxycephalosporanic acid], the MIC in [1] was 16 µg/mL (≈ 39.5 µM); in data set [2], greater than 125 µg/mL; in [3], 0.6 µg/mL (≈ 1.48 µM); in [3] (+ 50% serum) it was 0.6 µg/mL; in data set [4] (10-2), 2 µg/mL (≈ 4.93 µM); in [4] (10-3), 1 µg/mL (≈ 2.47 µM). Also, the MIC was 8 µg/mL (≈ 19.7 µM) in [5]; greater than 125 µg/mL in [6]; greater than 125 µg/mL in data set [7]; 32 µg/mL (≈ 78.9 µM) in data set [8]; 8 µg/mL (≈ 19.7 µM) in data set [9]; 0.08 µg/mL in [10]. Besides, the minimum inhibitory concentration (MIC) was 8 µg/mL (≈ 19.7 µM) in data set [11]; 32 µg/mL (≈ 78.9 µM) in data set [12]; 63 µg/mL (≈ 155 µM) in data set [13]; 32 µg/mL (≈ 78.9 µM) in [14]; greater than 125 µg/mL in data set [15]; 0.08 µg/mL in data set [16]. The compound further displayed an MIC in [17] greater than 125 µg/mL. The “hydrolysis to the p-hydroxy form in human serum” value in data set [18] (0.5 mg./ml. in human serum, 37° C., sampled 0-24 hours) is “quickly hydrolyzed to the p-hydroxy form”. In [18] (enzymatic), the “enzymatic hydrolysis to the p-hydroxy compound” value was “hydrolyzed enzymatically”. Also, the “stability in normal saline” value is “stable in normal saline” in data set [19] (listed as 7-D-(-)α-amino-α-(p-acetoxyphenyl-acetamido)desacetoxycephalosporanic acid) and “appears stable” in data set [19] (listed as p-acetoxycephalexin).
